In patent US20250333397A1 (REMIX THERAPEUTICS INC., priority 2021, published 2025):
Structures can show the parent of a compound that is named as a salt. Where two headings read alike, the source gives them in different places.

Key:
Assay type in all cases: cell-based, human
MYB mRNA = experiment: RT-qPCR splicing assay, MYB canonical (CJ) and alternative (AJ) junction mRNA; conditions: Homo sapiens; for AC50: read-out: MYB AJ (AC50, increase in AJ mRNA)
Outline: (§1)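 A673 (DMEM/10% FBS) or K562 (IMDM/10% FBS) cells treated 24 h at 37 °C with 11-point 3-fold dilutions, top 10 uM final, DMSO ≤0.25%. Lysates read by one-step RT-qPCR for CJ and AJ isoforms, normalized to GAPDH, GUSB or PPIA. ΔΔCt vs DMSO gives RQ via 2^(-ΔΔCt).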

SMN2 mRNA = experiment: RT-qPCR splicing assay panel, SMN2 canonical junction (CJ) mRNA; conditions: Homo sapiens
Outline: as §1

HTT mRNA = experiment: RT-qPCR splicing assay, HTT canonical (CJ) and alternative (AJ) junction mRNA; conditions: Homo sapiens; for AC50: read-out: HTT AJ (AC50, increase in AJ mRNA)
Outline: as §1

Target C mRNA = experiment: RT-qPCR splicing assay panel, Target C canonical junction (CJ) mRNA; conditions: Homo sapiens
Outline: as §1

[1] = 24 h, Table 3A, A673 or K562 cells, 24 h treatment
[2] = 24 h, Table 3A, A673 or K562 cells, 24 h treatment, read-out: MYB CJ (IC50, decrease in CJ mRNA)
[3] = canonical junction (CJ) mRNA, RT-qPCR panel, Table 4A, read-out: MYB, decrease in CJ mRNA levels, IC50
[4] = canonical junction (CJ) mRNA, RT-qPCR panel, Table 4A, read-out: SMN2, decrease in CJ mRNA levels, IC50
[5] = 24 h, Table 3A, A673 or K562 cells, 24 h treatment, read-out: HTT CJ (IC50, decrease in CJ mRNA)
[6] = canonical junction (CJ) mRNA, RT-qPCR panel, Table 4A, read-out: HTT, decrease in CJ mRNA levels, IC50
[7] = canonical junction (CJ) mRNA, RT-qPCR panel, Table 4A, read-out: Target C, decrease in CJ mRNA levels, IC50
[8] = 24 h, Table 3B, A673 or K562 cells, 24 h treatment

Row | Structure (SMILES) | AC50 (MYB mRNA; [1]) [nM] | IC50 (MYB mRNA; [2]) [nM] | IC50 (MYB mRNA; [3]) [nM] | IC50 (SMN2 mRNA; [4]) [nM] | AC50 (HTT mRNA; [1]) [nM] | IC50 (HTT mRNA; [5]) [nM] | IC50 (HTT mRNA; [6]) [nM] | IC50 (Target C mRNA; [7]) [nM] | AC50 (MYB mRNA; [8]) [nM] | IC50 (MYB mRNA; 24 h, Table 3B, A673 or K562 cells, 24 h treatment, read-out: MYB CJ (IC50, decrease in CJ mRNA)) [nM] | IC50 (MYB mRNA; Table 4B, gene panel, read-out: MYB (IC50, decrease in CJ mRNA levels)) [nM] | IC50 (SMN2 mRNA; Table 4B, gene panel, read-out: SMN2 (IC50, decrease in CJ mRNA levels)) [nM] | AC50 (HTT mRNA; [8]) [nM] | IC50 (HTT mRNA; 24 h, Table 3B, A673 or K562 cells, 24 h treatment, read-out: HTT CJ (IC50, decrease in CJ mRNA)) [nM] | IC50 (HTT mRNA; Table 4B, gene panel, read-out: HTT (IC50, decrease in CJ mRNA levels)) [nM] | IC50 (Target C mRNA; Table 4B, gene panel, read-out: Target C (IC50, decrease in CJ mRNA levels)) [nM]
1 | CN(C1CCC1)[C@@H]1CCN(c2ccc(-c3cc(F)c(-c4cn[nH]c4)cc3O)nn2)C1 [Compound 314, 2-{6-[(3R)-3-[cyclobutyl(methyl)amino]pyrrolidin-1-yl]pyridazin-3-yl}-4-fluoro-5-(1H-pyrazol-4-yl)phenol] | 100 to 1000 | 1000 to 10000 | 1000 to 10000 | < 100 | 100 to 1000 | < 100 | < 100 | 100 to 1000 |  |  |  |  |  |  |  | 
2 | COc1cc(-c2cc(O)c(-c3ccc(N4CC[C@@](C)(NC5CCC5)C4)nn3)cc2F)cnn1 (single isomer, unassigned) [Compound 308, 2-{6-[3-(cyclobutylamino)-3-methylpyrrolidin-1-yl]pyridazin-3-yl}-4-fluoro-5-(6-methoxypyridazin-4-yl)phenol] | 100 to 1000 | 1000 to 10000 | 1000 to 10000 | < 100 | 100 to 1000 | < 100 | < 100 | 100 to 1000 |  |  |  |  |  |  |  | 
3 | Cc1nnc(-c2ccc(-c3ccc(N4CC[C@H](NCC5CC5)C4)nn3)c(O)c2)s1 [Compound 414] | 100 to 1000 | 100 to 1000 | 100 to 1000 | < 100 | 100 to 1000 | < 100 | < 100 | 100 to 1000 |  |  |  |  |  |  |  | 
4 | COc1cc(-c2ccc(-c3ccc(N4CCC(CNC(C)(C)C)C4)nn3)c(O)c2)cnn1 (centres unmarked) [Compound 351, 2-(6-{3-[(tert-butylamino)methyl]pyrrolidin-1-yl}pyridazin-3-yl)-5-(6-methoxypyridazin-4-yl)phenol] | 1000 to 10000 | 100 to 1000 | 100 to 1000 | 100 to 1000 | 100 to 1000 | < 100 | < 100 | 100 to 1000 |  |  |  |  |  |  |  | 
5 | COc1cc(-c2cc(O)c(-c3ccc(N4CC[C@H](NC(C)(C)C)C4)nn3)cc2F)cnn1 [Compound 211, 2-{6-[(3S)-3-(tert-butylamino)pyrrolidin-1-yl]pyridazin-3-yl}-4-fluoro-5-(6-methoxypyridazin-4-yl)phenol] | 1000 to 10000 | 1000 to 10000 | 1000 to 10000 | < 100 | 100 to 1000 | 100 to 1000 | 100 to 1000 | 100 to 1000 |  |  |  |  |  |  |  | 
6 | CN(C1CCC1)[C@H]1CCN(c2ccc(-c3cc(F)c(-c4cn[nH]c4)cc3O)nn2)C1 [Compound 295] | 100 to 1000 | 100 to 1000 | 100 to 1000 | < 100 | < 100 | < 100 | < 100 | < 100 |  |  |  |  |  |  |  | 
7 | COc1cc(-c2ccc(-c3ccc(N4CCC(C)(NC(C)C)C4)nn3)c(O)c2)cnn1 (centres unmarked) [Compound 285, 2-{6-[3-(isopropylamino)-3-methylpyrrolidin-1-yl]pyridazin-3-yl}-5-(6-methoxypyridazin-4-yl)phenol] | 100 to 1000 | 100 to 1000 | 100 to 1000 | < 100 | < 100 | < 100 | < 100 | < 100 |  |  |  |  |  |  |  | 
8 | Cc1ncc(-c2ccc(-c3ccc(N4CCC(NC5CCC5)C4)nn3)cc2F)s1 (centres unmarked) [Compound 344] | 1000 to 10000 | 1000 to 10000 | 1000 to 10000 | 100 to 1000 | 1000 to 10000 | 1000 to 10000 | 1000 to 10000 | 1000 to 10000 |  |  |  |  |  |  |  | 
9 | CC(C)(C)NC1CCN(c2ccc(-c3ccc(-n4cccn4)c(O)c3)nn2)C1 (centres unmarked) [Compound 109, 5-{6-[3-(tert-butylamino)pyrrolidin-1-yl]pyridazin-3-yl}-2-(pyrazol-1-yl)phenol trifluoroacetate] | > 10000 | > 10000 | > 10000 | 1000 to 10000 | > 10000 | 1000 to 10000 | 1000 to 10000 | > 10000 |  |  |  |  |  |  |  | 
10 | Cc1nc2cc(O)c(-c3ccc(N4CC[C@@H](NC(C)(C)C)C4)nn3)cc2o1 [Compound 812] |  |  |  |  |  |  |  |  | 100 to 1000 | 100 to 1000 | 100 to 1000 | < 100 | < 100 | < 100 | < 100 | 100 to 1000
11 | COc1cc(-c2cc(O)c(-c3ccc(N4CCC(C)(NC(C)C)C4)nn3)cc2F)cnn1 (centres unmarked) [Compound 284] | 100 to 1000 | 100 to 1000 | 100 to 1000 | < 100 | < 100 | < 100 | < 100 | 100 to 1000 |  |  |  |  |  |  |  | 
12 | Cc1ncc(-c2cc(O)c(-c3ccc(N4CC[C@@H](N[C@@H](C)C5CC5)C4)nn3)cc2F)s1 [Compound 373] | < 100 | < 100 | < 100 | < 100 | < 100 | < 100 | < 100 | < 100 |  |  |  |  |  |  |  | 
13 | Cc1cn2cc(-c3ccc(-c4ccc(N5CCC(NC6CCC6)C5)nn4)c(O)c3)ncc2n1 (centres unmarked) [Compound 327] | 100 to 1000 | 1000 to 10000 | 1000 to 10000 | < 100 | 100 to 1000 | 100 to 1000 | 100 to 1000 | 1000 to 10000 |  |  |  |  |  |  |  | 
14 | Cc1ccc(-c2ccc(-c3ccc(N4CC[C@@H](NC5CCC5)C4)nn3)c(O)c2)cn1 [Compound 293, 2-{6-[(3R)-3-(cyclobutylamino)pyrrolidin-1-yl]pyridazin-3-yl}-5-(6-methylpyridin-3-yl)phenol] | 100 to 1000 | 1000 to 10000 | 1000 to 10000 | < 100 | 100 to 1000 | 100 to 1000 | 100 to 1000 | 1000 to 10000 |  |  |  |  |  |  |  | 
15 | CNc1cc(-c2ccc(-c3ccc(N4CC[C@@H](NC(C)(C)C)C4)nn3)c(O)c2)ncn1 [Compound 437, 2-{6-[(3R)-3-(tert-butylamino)pyrrolidin-1-yl]pyridazin-3-yl}-5-[6-(methylamino)pyrimidin-4-yl]phenol] | < 100 | < 100 | < 100 | < 100 | < 100 | < 100 | < 100 | < 100 |  |  |  |  |  |  |  | 
16 | COc1cc(-c2ccc(-c3cc(C)c(N4CC[C@H](NC5CCC5)C4)nn3)c(O)c2)cnn1 [Compound 449, 2-{6-[(3S)-3-(cyclobutylamino)pyrrolidin-1-yl]-5-methylpyridazin-3-yl}-5-(6-methoxypyridazin-4-yl)phenol] | 100 to 1000 | 100 to 1000 | 100 to 1000 | < 100 | 100 to 1000 | 100 to 1000 | 100 to 1000 | 1000 to 10000 |  |  |  |  |  |  |  | 
